Earlier results in paper PMC10649572 (International Journal of Molecular Sciences, 2023).
No end group written: not given here.

Target: T1, CaM^WT (Homo sapiens, UniProt P0DP23)
T1 construct: made in house; host or cells: Escherichia coli BL21-CodonPlus(DE3)
Conditions: in the presence and absence of Ca^2+; ref [38]

interaction with CaM: significant affinity
Sequence: LMRMLSLKSLKKQMKKV [Peptide F]
